In ChEMBL document CHEMBL1158206, “Ferintoic Acids A and B, New Cyclic Hexapeptides from the Freshwater Cyanobacterium Microcystis aeruginosa” (J Nat Prod, 1996):
Active and inactive are the calls of the source. The calls are words filed in the database; no cut-off is given here. Numbered stars: 1 amine (or outer) side, 2 acyl side, 3 side chain; on linkers, the order of the positions; unused ones are H or OH. Bridge positions count the residues as written; N and C are the ends. Square brackets hold non-standard residues; d marks the D form. Peptide text beside a SMILES is read from it. hTyr = N[C@@H](CCc1ccc(O)cc1)C(=O)O; aIle = CC[C@@H](C)[C@H](N)C(=O)O; NMeA = CN[C@@H](C)C(=O)O; CO = O=C([*:1])[*:2]

How the values were obtained:
[1] = Inhibition of chymotrypsin at 150 uM
[2] = Inhibition of chymotrypsin at 10 uM

Structure (SMILES) | Activity [1] | Activity [2]
CC[C@@H](C)[C@@H]1NC(=O)[C@H](NC(=O)N[C@@H](Cc2c[nH]c3ccccc23)C(=O)O)CCCCNC(=O)[C@H](Cc2ccccc2)NC(=O)[C@H](C)N(C)C(=O)[C@H](CCc2ccc(O)cc2)NC1=O | inactive | 
CC(C)[C@@H]1NC(=O)[C@H](NC(=O)N[C@@H](Cc2c[nH]c3ccccc23)C(=O)O)CCCCNC(=O)[C@H](Cc2ccccc2)NC(=O)[C@H](C)N(C)C(=O)[C@H](CCc2ccc(O)cc2)NC1=O ({Trp-CO}-[dK]V[hTyr][NMeA]F; lactam 1-C) | inactive | 
CC[C@@H](C)[C@@H]1NC(=O)[C@H](NC(=O)N[C@@H](Cc2ccc(O)cc2)C(=O)O)CCCCNC(=O)[C@H](Cc2ccccc2)NC(=O)[C@H](C)N(C)C(=O)[C@H](CCc2ccc(O)cc2)NC1=O ({Tyr-CO}-[dK][aIle][hTyr][NMeA]F; lactam 1-C) |  | Active
